These results are taken from PubChem BioAssay AID1549 (Sanford-Burnham Center for Chemical Genomics, 2009).

The source made the active and inactive calls. The rule behind the calls is not given here.

The experiment concerns the target Influenza A virus M2 proton channel (A/TW/4845/1999 H1N1). Description: NMR binding screen, influenza A virus M2 proton channel, Kd (AID 1549). Conditions: M2 protein.
As for `Nc1ccc(S(=O)(=O)Nc2ccc(F)cc2F)cc1`, the Kd (as a rule, the equilibrium constant for the complex coming apart) is > 4 mM (inactive). The figure for `CC(C)CCCC(C)[C@H]1CCC2C3CC[C@H]4CC(=O)CC[C@]4(C)C3CC[C@@]21C` (stereo partly drawn) is > 4 mM (inactive); for `COc1ccc(C2CC(=O)c3ccc(OC)cc3O2)cc1` (stereo not drawn) it is > 4 mM (inactive). The figure for `Cc1ccccc1NC(=S)NCCO` is > 4 mM (inactive). Regarding `C=C1C2CC[C@@]3(C)[C@H](c4ccoc4)OC(=O)C[C@]13O[C@H]1CC(O)C(C)(C)C(CC(=O)OC)[C@@]21C` (stereo partly drawn), the Kd is > 4 mM (inactive). Then `COc1ccc(-c2nc(C)sc2CC(=O)O)cc1`, with > 4 mM (inactive); and `O=C(O)Cn1nnnc1-c1ccc(F)cc1`, with > 4 mM (inactive); and `CN(C)Cc1nc2c([nH]1)c(=O)[nH]c(=O)n2C`, with > 4 mM (inactive). The figure for `C(=Nn1cnnc1)c1ccccc1` is > 4 mM (inactive); for `CC12CC[C@H](CC1=O)C2(C)C` it is > 4 mM (inactive). The figure for `Cc1cc(C)c(-c2cc(C(F)(F)F)no2)c(=O)[nH]1` is > 4 mM (inactive). Regarding `Cc1cc(C)n2nc(C(=O)Nc3cccnc3)nc2n1`, the Kd was > 4 mM (inactive). Then `Nc1[nH]c(=S)[nH]c(=O)c1-c1ccccc1`, with > 4 mM (inactive); and `O=c1[nH]cnc2nn(-c3ccccc3)nc12`, with > 4 mM (inactive); and `Cc1noc(C)c1C(=O)N1CCc2ccccc21`, with > 4 mM (inactive). Regarding `CC1=C(C(N)=O)C(c2ccccc2)NC(=O)N1` (stereo not drawn), the Kd is > 4 mM (inactive). Then `CN1CCC2(CC1)CC1CC3C=CC1(CN2)O3` (stereo not drawn), with > 4 mM (inactive); and `O=C(Oc1ccc2c(c1)OCC2=O)c1ccccc1`, with > 4 mM (inactive); and `CC(=O)c1c(C)nc(-c2cccs2)n1O`, with > 4 mM (inactive). As to `CC(=O)NC(c1ccccc1)c1cccnc1` (stereo not drawn), the Kd was > 4 mM (inactive). `CC(=O)c1cc(CN2C(=O)c3ccccc3C2=O)cs1`: the Kd is > 4 mM (inactive). The figure for `O=C(O)c1cccnc1N1CCOCC1` is > 4 mM (inactive); for `O=C(Cc1ccc(F)cc1)Nc1ncccn1` it is > 4 mM (inactive). The figure for `C/C(=C\CO)CC[C@H](C)CCC[C@H](C)CCCC(C)C` is > 4 mM (inactive); for `Cc1cc2ncc(C(=O)Nc3ccccc3)c(C)n2n1` it is > 4 mM (inactive).

`CC1=CC(=O)NC2C=CC=CC12` (stereo not drawn): the Kd is > 4 mM (inactive). Then `C[C@]12C=CC(=O)C=C1CCC1C2CC[C@]2(C)C(=O)CCC12` (stereo partly drawn), with > 4 mM (inactive); and `CNC(=O)C(=O)Nc1c(C)cccc1C`, with > 4 mM (inactive).

With `c1n[nH]cc1-c1cn[nH]c1`, the Kd is > 4 mM (inactive). Then `Cn1cnc2c(=S)[nH]c(=O)n(Cc3ccccc3)c21`, with > 4 mM (inactive); and `O=C(O)C1NCCc2ccccc21` (stereo not drawn), with > 4 mM (inactive); and `O=C(NC(=S)NN1CCOCC1)c1cccs1`, with > 4 mM (inactive).

For `Cc1ccc2nc(SCCC#N)nc(C)c2c1`, the Kd is > 4 mM (inactive). The figure for `CC(=O)Oc1c(C)cc(O)c2ccccc12` is > 4 mM (inactive); for `CN1CCN(C2CCSC2)CC1` (stereo not drawn) it is > 4 mM (inactive); for `COc1cc(OC)c2c(c1)O[C@H](c1ccc(OC)c(OC)c1)[C@@H](O)C2` it is > 4 mM (inactive). In the case of `CSc1cccc(NC(=O)c2c(Cl)cnn2C)c1`, the Kd is > 4 mM (inactive).

As to `COc1cc(OC)c2c(c1Cl)OC1(C2=O)C(O)=CC(=O)CC1C` (stereo not drawn), the Kd was > 4 mM (inactive).

Consider `O=C(O)c1cccc2c1OCC2`, for which the Kd is > 4 mM (inactive). Consider `Cc1ccc(SCCN2C(=O)NC(C)(C)C2=O)cc1`, for which the Kd was > 4 mM (inactive).

In the case of `Fc1ccc(-c2n[nH]c(=S)n2CC2CCCO2)cc1` (stereo not drawn), the Kd is > 4 mM (inactive). As for `O=C(NCc1ccccc1)c1ccc[n+]([O-])c1`, the Kd was > 4 mM (inactive). Then `CCNC(=O)CC[C@H](N)C(=O)O`, with > 4 mM (inactive); and `O=[N+]([O-])c1cccc2c1nnn2C(CO)OCCO` (stereo not drawn), with > 4 mM (inactive); and `COc1ccc(-c2ccc(=O)n(CC(N)=O)n2)cc1`, with > 4 mM (inactive). On to `Nc1cc2ccccc2cn1`, for which the Kd is > 4 mM (inactive). With `CC(=O)Nc1ccccc1-c1ccccc1NC(C)=O`, the Kd was > 4 mM (inactive). As for `COC(=O)c1ccccc1C`, the Kd is > 4 mM (inactive).

Take `CC(=O)N1CCC(NC2CCCCCC2)CC1`: the Kd was > 4 mM (inactive). As to `O=C(/C=C/c1ccc(O)cc1)c1ccc(O)cc1O`, the Kd is > 4 mM (inactive). Then `O=C(Nc1nnc(-c2cccnc2)o1)c1ccccc1F`, with > 4 mM (inactive); and `Nc1cccc(C(=O)Nc2ccc(N)cc2Cl)c1`, with > 4 mM (inactive). Then `O=C(O)c1cccc2c1OCCO2`, with > 4 mM (inactive); and `COC(=O)c1[nH]c2ccccc2c1C(=O)OC`, with > 4 mM (inactive); and `COC1=CC(=O)C[C@@H](C)[C@]12Oc1c(Cl)c(OC)cc(OC)c1C2=O`, with > 4 mM (inactive). Then `O=C(c1ccc(N2CCNCC2)cc1)c1cccnc1`, with > 4 mM (inactive); and `NC(=O)CSc1nnc2ccc(-c3ccco3)nn12`, with > 4 mM (inactive); and `CN1C2CC(OC(=O)[C@H](CO)c3ccccc3)C[C@H]1[C@H]1OC21` (stereo partly drawn), with > 4 mM (inactive).

Take `CC(=O)CC(=O)N1C(O)CC[N+]1(C)C` (stereo not drawn): the Kd was > 4 mM (inactive). The figure for `O=C1CSC(=Nc2cc(Cl)ccc2Cl)N1` is > 4 mM (inactive); for `O=c1[nH]cnc2c1nnn2Cc1ccccc1` it is > 4 mM (inactive); for `NC(=O)C(=O)Nc1nc(-c2ccccc2)cs1` it is > 4 mM (inactive).

Take `Cc1cn2c(-c3cccnc3)nnc2s1`: the Kd was > 4 mM (inactive). The figure for `CSc1ccccc1NC(=O)c1cnccn1` is > 4 mM (inactive). Then `O=c1[nH]c2sc3c(c2c2ncnn12)CCCC3`, with > 4 mM (inactive); and `CNC(=O)Nc1cccc(C(F)(F)F)c1`, with > 4 mM (inactive). Then `CSc1ccccc1NC(=O)c1c(C)noc1C`, with > 4 mM (inactive); and `CC1(O)CC2C=CC1C2` (stereo not drawn), with > 4 mM (inactive).

As to `CNC(=O)C(=O)Nc1ccc(F)cc1`, the Kd is > 4 mM (inactive).

For the compound `O=S(=O)(Cc1ccccc1Cl)Nc1ccccn1`, the Kd is > 4 mM (inactive).

`O=C(c1cnsn1)N1CCN(c2ccccn2)CC1`: the Kd is > 4 mM (inactive).

Take `CCn1c2ccccc2c2nn(C)c(=N)nc21`: the Kd is > 4 mM (inactive). Then `Nc1csc(C(=O)O)c1`, with > 4 mM (inactive). Take `O=C(NC1=NCCS1)c1csc2ccccc12`: the Kd is > 4 mM (inactive). Then `COc1cc(C)c(S(=O)(=O)N2CCN(C)CC2)cc1C`, with > 4 mM (inactive); and `O=C1Nc2ccccc2C1(O)Cc1ccncc1` (stereo not drawn), with > 4 mM (inactive); and `CC1(C)C2C[C@@H](O)[C@]3(C)C(CC[C@@]4(C)[C@H](c5ccoc5)OC(=O)[C@H]5O[C@]543)[C@@]2(C)[C@@H](O)C[C@H]1O` (stereo partly drawn), with > 4 mM (inactive).

In the case of `CC(=O)NC1=NN(c2ccccc2)C(=O)C1`, the Kd was > 4 mM (inactive). Then `Cc1occc1C(=O)Nc1nnc(C(F)(F)F)s1`, with > 4 mM (inactive).

As for `FC(F)(F)c1nnc2ccc(N3CCOCC3)nn12`, the Kd is > 4 mM (inactive). The figure for `Cc1cc(C)n(C2CCS(=O)(=O)C2)n1` (stereo not drawn) is > 4 mM (inactive). Then `CCn1c(C)c(C(C)=O)c(N2CCOCC2)nc1=S`, with > 4 mM (inactive); and `COc1ccc(C(=O)NNC(=S)NC(C)=O)cc1`, with > 4 mM (inactive); and `C[C@@H]1CC[C@H]2[C@@H](C)C(=O)O[C@@H]3OC4(C)CC[C@@H]1[C@]32OO4`, with > 4 mM (inactive). As to `CSc1nc2nccc(N)n2n1`, the Kd is > 4 mM (inactive). In the case of `Nc1nc2[nH]c(=O)c(=O)[nH]c2c(=O)[nH]1`, the Kd is > 4 mM (inactive). In the case of `NC(=O)CSCc1c(Cl)cccc1Cl`, the Kd was > 4 mM (inactive). For `CC(CO)NC(=O)C1C=C2c3cccc4[nH]cc(c34)C[C@H]2N(C)C1` (stereo partly drawn), the Kd is > 4 mM (inactive).

Regarding `CC(=O)CNc1cc(CNC(C)=O)c(C)cc1C`, the Kd is > 4 mM (inactive). The figure for `CC(=O)Nc1ccc(Nc2nnc(C)c(=O)[nH]2)cc1` is > 4 mM (inactive); for `COc1ccccc1Nc1nncc(=O)[nH]1` it is > 4 mM (inactive). The figure for `Cc1nc2ccccc2c(=O)n1-c1cccc(O)c1` is > 4 mM (inactive); for `Cc1c(C(=O)O)cnn1-c1ccccc1` it is > 4 mM (inactive). Then `O=C(O[C@@H]1Cc2c(O)cc(O)cc2O[C@@H]1c1cc(O)c(=O)c2c(O)c(O)cc([C@H]3Oc4cc(O)cc(O)c4C[C@H]3OC(=O)c3cc(O)c(O)c(O)c3)c2c1)c1cc(O)c(O)c(O)c1`, with > 4 mM (inactive); and `CSc1nnc2c(n1)OC=Nc1ccccc1-2`, with > 4 mM (inactive). With `COC(=O)c1cccnc1Oc1ccccc1`, the Kd was > 4 mM (inactive).

Turning to `CC(=O)Oc1ccc2c(c1OC(C)=O)OCC1(O)Cc3c(cc(OC(C)=O)c(OC(C)=O)c3OC(C)=O)C21` (stereo not drawn), the Kd is > 4 mM (inactive). The figure for `COC(=O)c1c(SC)nc(-c2ccccc2)[nH]c1=O` is > 4 mM (inactive); for `NC(=O)c1ccc(-c2csnn2)cc1` it is > 4 mM (inactive); for `CC(=O)Nc1cc(S(=O)(=O)N(C)C)ccc1Cl` it is > 4 mM (inactive). Consider `CC1=NN(C(N)=S)C(C)(C)C1`, for which the Kd is > 4 mM (inactive).

For the compound `CCC(=O)NC(=S)Nc1ccc(N2CCOCC2)cc1`, the Kd was > 4 mM (inactive). Take `CC(C)=NNC(=O)C(=O)Nc1ccc(F)cc1`: the Kd is > 4 mM (inactive).
